Assay results from patent publication US20260285853A1, “COMPOUNDS AND METHODS FOR MODULATING SPLICING” (REMIX THERAPEUTICS INC., priority 2023, published 2026).
pIC50: −log10 of the molar value.

Columns and labels:
Type in all cases: cell-based
HTT mRNA [1] = assay: Splicing RT-qPCR assay, canonical (CJ) and alternative (AJ) junction mRNA, K562 cells; conditions: Homo sapiens, K562.3 cells, 24 hours; for AC50: read-out: HTT AJ (AC50, increase in AJ mRNA); for pIC50: read-out: HTT CJ (IC50, decrease in CJ mRNA)
Protocol: (§1) Compounds described herein were used to modulate RNA transcript abundance in cells. The expression of a target mRNA was measured by detecting the formation of an exon-exon junction in the canonical transcript (CJ). A compound mediated exon-inclusion event was detected by observing an increase in formation of a new junction with an alternative exon (AJ). Real-time qPCR assays were used to detect these splicing switches and interrogate the potency of various compounds towards different target genes. A high-throughput real time quantitative PCR (RT-qPCR) assay was developed to measure these two isoforms of the mRNA (CJ and AJ) for exemplary genes, such as HTT, SMN2, and MYB, together with a control housekeeping gene, GAPDH or GUSB or PPIA, used for normalization. Briefly, the A673 or K562 cell line was treated with various compounds described herein (e.g., compounds of Formula (I)). After treatment, the levels of the HTT, MYB, or SMN2 mRNA targets were determined from each sample of cell lysate by cDNA synthesis followed by qPCR.
(§2) • Cells-to-CT 1-step kit: ThermoFisher A25602, Cells-to-CT lysis reagent: ThermoFisher 4391851C, TaqMan™ Fast Virus 1-Step Master Mix: ThermoFisher 4444436 • GAPDH: VIC-PL, ThermoFisher 4326317E (Assay: Hs99999905_m1)—used for K562/suspension cell lines • GUSB: VIC-PL, ThermoFisher 4326320E (Assay: Hs99999908_m1)—used for K562/suspension cell lines • PPIA: VIC-PL, ThermoFisher 4326316E (Assay: Hs99999904_m1)—used for A673/adherent cell lines
(§3) The K562 cell line was cultured in IMDM with 10% FBS. For K562, cells were diluted with full growth media and plated in either a 96-well plate (50,000 cells in 50 uL media per well) or a 384-well plate (8,000-40,000 cells in 45 uL media per well). An 11-point 3-fold serial dilution of the compounds were made in DMSO then diluted in media in an intermediate plate. Compound was transferred from the intermediate plate to the cell plate with the top dose at a final concentration of 10 uM in the well. Final DMSO concentration was kept at or below 0.25%. Final volume was 100 uL for 96-well plate and 50 uL for 384-well plate. The cell plate was then placed in an incubator at 37° C. with 5% CO2 for 24 hours.
(§4) The cells were then gently washed with 50 uL-100 uL cold PBS before proceeding to addition of lysis buffer. 30 uL-50 uL of room temperature lysis buffer with DNAse I (and optionally RNAsin) was added to each well. Cells were shaken/mixed thoroughly at room temperature for 5-10 minutes for lysis to take place and then 3 uL-5 uL of room temperature stop solution was added and wells were shaken/mixed again. After 2-5 minutes, the cell lysate plate was transferred to ice for RT-qPCR reaction setup. The lysates could also be frozen at −80° C. for later use.
(§5) In some cases, a direct lysis buffer was used. An appropriate volume of 3× lysis buffer (10 mM Tris, 150 mM NaCl, 1.5%-2.5% Igepal and 0.1-1 U/uL RNAsin, pH 7.4) was directly added to either K562 or A673 cells in media and mixed by pipetting 3 times. The plates were then incubated at room temperature with shaking/rocking for 20-50 minutes to allow for lysis to take place. After this time, the cell lysate plate was transferred to ice to set up for the RT-qPCR reactions. The lysates could also be frozen at −80° C. for later use.
(§6) To set up 10 uL RT-qPCR reactions, cell lysates were transferred to 384-well qPCR plates containing the master mix according to the table below. The plates were sealed, gently vortexed, and spun down before the run. The volumes were adjusted accordingly in some instances where the reaction was carried in 20 uL. The table below summarizes the components of the RT-qPCR reactions:
(§7) The RT-qPCR reaction was performed using a QuantStudio (ThermoFisher) under the following fast cycling conditions. All samples and standards were analyzed at least in duplicate. In some instances, bulk room temperature (RT) step of 5-10 minutes was completed for all plates before proceeding with qPCR. […]

MYB mRNA [2] = assay: as above; conditions: Homo sapiens, K562.3 cells, 24 hours; for AC50: read-out: MYB AJ (AC50, increase in AJ mRNA); for pIC50: read-out: MYB CJ (IC50, decrease in CJ mRNA)
Protocol: as §1, §2, §3, §4, §5, §6, §7

SMN2 mRNA = assay: Gene panel canonical junction qPCR assay, decrease in CJ mRNA, Table 3; conditions: decrease in canonical junction (CJ) mRNA, gene panel qPCR, Table 3
Outline: (§8)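 Cells: A673 or K562; 24 h compound exposure, 37 °C, 5% CO2; 11-pt 3-fold series from 10 uM final; DMSO ≤0.25%. Lysate → cDNA → qPCR with junction-spanning primers/probe for CJ transcript. ΔCt vs housekeeper, ΔΔCt vs DMSO, 2^(−ΔΔCt), % response, 4PL → IC50.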

HTT mRNA [3] = assay: as above; conditions: decrease in canonical junction (CJ) mRNA, gene panel qPCR, Table 3
Outline: as §8

MYB mRNA [4] = assay: as above; conditions: decrease in canonical junction (CJ) mRNA, gene panel qPCR, Table 3
Outline: as §8

[5] = system: SH-SY5Y (human neuroblastoma) cells; assay: Cell viability, Cell Titer Glo 2.0 assay; conditions: read-out: Viability SHSY5Y.3 GI50
Outline: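 CellTiter-Glo 2.0 luminescence read-out after 72 h compound exposure (37 °C, 5% CO2); medium-only wells as blank. DMSO 0.1% final.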

Row | pIC50 (HTT mRNA [1]) | pIC50 (MYB mRNA [2]) | pIC50 (SMN2 mRNA) | pIC50 (HTT mRNA [3]) | pIC50 (MYB mRNA [4]) | GI50 [5] [nM] | SMILES | AC50 (HTT mRNA [1]) [nM] | AC50 (MYB mRNA [2]) [nM]
1 | 5.00 to 6.00 | 6.00 to 7.00 | > 7.00 | 5.00 to 6.00 | 6.00 to 7.00 | 1000 to 10000 | CN[C@@H]1CN(c2ccc(C(=O)Nc3cc(F)c4nc(C)cn4c3)c3nn(C)cc23)C[C@@H]1C [Compound 108, N-(8-fluoro-2-methyl-imidazo[1,2-a]pyridin-6-yl)-2-methyl-4-[(3S,4S)-3-methyl-4-(methylamino)-pyrrolidin-1-yl]indazole-7-carboxamide] | > 10000 | 100 to 1000
2 | 5.00 to 6.00 | < 5.00 | < 5.00 | 5.00 to 6.00 | < 5.00 | > 10000 | Cc1cn2cc(C(=O)Nc3ccc(N4CCNCC4)c4cn[nH]c34)cc(F)c2n1 [Compound 214, 8-fluoro-2-methyl-N-(4-piperazin-1-yl-1H-indazol-7-yl) imidazo[1,2-a]pyridine-6-carboxamide] | > 10000 | > 10000
3 | < 5.00 | < 5.00 | 5.00 to 6.00 | < 5.00 | < 5.00 | > 10000 | Cc1cn2cc(NC(=O)c3c(F)cc(N4CCNCC4)c4c3CN(C)C4)cc(F)c2n1 [Compound 230, 5-fluoro-N-(8-fluoro-2-methyl-imidazo[1,2-a]pyridin-6-yl)-2-methyl-7-piperazin-1-yl-isoindoline-4-carboxamide] | > 10000 | > 10000
4 | 5.00 to 6.00 | 6.00 to 7.00 | > 7.00 | 5.00 to 6.00 | 6.00 to 7.00 | 1000 to 10000 | CN[C@@H]1CN(c2ccc(C(=O)Nc3cc(F)c4nc(C)cn4c3)c3nn(C)cc23)C[C@H]1C [Compound 107, N-(8-fluoro-2-methyl-imidazo[1,2-a]pyridin-6-yl)-2-methyl-4-[(3R,4S)-3-methyl-4-(methylamino)pyrrolidin-1-yl]indazole-7-carboxamide] | > 10000 | 100 to 1000
5 | 5.00 to 6.00 | < 5.00 | 6.00 to 7.00 | 5.00 to 6.00 | < 5.00 | 1000 to 10000 | CN[C@H]1C[C@H](C)N(c2ccc(C(=O)Nc3cc(F)c4nc(C)cn4c3)c3nn(C)cc23)C1 [Compound 127, N-(8-fluoro-2-methyl-imidazo[1,2-a]pyridin-6-yl)-2-methyl-4-[(2S,4S)-2-methyl-4-(methylamino)-pyrrolidin-1-yl]indazole-7-carboxamide] | > 10000 | > 10000
6 | < 5.00 | 5.00 to 6.00 | 5.00 to 6.00 | < 5.00 | 5.00 to 6.00 | > 10000 | CCNC1CCN(c2ccc(C(=O)Nc3cn4cc(C)nc4c(F)c3OC)c3[nH]ccc23)CC1 [Compound 171, 4-[4-(ethylamino)piperidin-1-yl]-N-(8-fluoro-7-methoxy-2-methylimidazo[1,2-a]pyridin-6-yl)-1H-indole-7-carboxamide] | > 10000 | > 10000
7 | 6.00 to 7.00 | > 7.00 | > 7.00 | 6.00 to 7.00 | > 7.00 | 100 to 1000 | COc1c(NC(=O)c2ccc(N3CCNCC3)c3cn[nH]c23)cn2cc(C)nc2c1F [Compound 211, N-(8-fluoro-7-methoxy-2-methylimidazo[1,2-a]pyridin-6-yl)-4-(piperazin-1-yl)-1H-indazole-7-carboxamide] | 100 to 1000 | < 100
8 | 5.00 to 6.00 | 6.00 to 7.00 | > 7.00 | 5.00 to 6.00 | 6.00 to 7.00 | 1000 to 10000 | C#CCN[C@@H]1CCN(c2ccc(C(=O)Nc3cc(F)c4nc(C)cn4c3)c3nn(C)cc23)C1 [Compound 122] | 1000 to 10000 | 100 to 1000
9 | < 5.00 | < 5.00 | 5.00 to 6.00 | < 5.00 | < 5.00 | > 10000 | Cc1cn2cc(C(=O)Nc3ccc(N4C[C@@H](C)N[C@@H](C)C4)c4cn[nH]c34)cc(F)c2n1 [Compound 215, N-[4-[(3R,5S)-3,5-dimethylpiperazin-1-yl]-1H-indazol-7-yl]-8-fluoro-2-methyl-imidazo[1,2-a]pyridine-6-carboxamide] | > 10000 | > 10000
10 | < 5.00 | 6.00 to 7.00 | > 7.00 | < 5.00 | 6.00 to 7.00 | 100 to 1000 | Cc1cn2cc(NC(=O)c3ccc(N4CC[C@H](NCC56CC(CO5)C6)C4)c4cn(C)nc34)cc(F)c2n1 [Compound 125, N-(8-fluoro-2-methyl-imidazo[1,2-a]-pyridin-6-yl)-2-methyl-4-[(3R)-3-(2-oxabicyclo-[2.1.1]hexan-1-ylmethyl-amino)pyrrolidin-1-yl][6.1]-indazole-7-carboxamide] | > 10000 | 100 to 1000
11 | < 5.00 | 5.00 to 6.00 | > 7.00 | < 5.00 | 5.00 to 6.00 | 1000 to 10000 | Cc1cn2cc(NC(=O)c3ccc(N4CC[C@@H](NCC56CC(CO5)C6)C4)c4cn(C)nc34)cc(F)c2n1 [Compound 124, N-(8-fluoro-2-methyl-imidazo[1,2-a]pyridin-6-yl)-2-methyl-4-[(3R)-3-(2-oxabicyclo[2.1.1]hexan-1-ylmethylamino)pyrrolidin-1-yl]indazole-7-carboxamide] | > 10000 | 100 to 1000
12 | 5.00 to 6.00 | 6.00 to 7.00 | > 7.00 | 5.00 to 6.00 | 6.00 to 7.00 | 1000 to 10000 | COCCN[C@H]1CCN(c2ccc(C(=O)Nc3cc(F)c4nc(C)cn4c3)c3nn(C)cc23)C1 [Compound 112, N-(8-fluoro-2-methyl-imidazo[1,2-a]pyridin-6-yl)-4-[(3S)-3-(2-methoxyethylamino)pyrrolidin-1-yl]-2-methyl-indazole-7-carboxamide] | > 10000 | < 100
